{
  "source": "ChEMBL document CHEMBL3044624",
  "about": "“Cycloate, an inhibitor of fatty acid elongase, modulates the metabolism of very-long-side-chain alkylresorcinols in rye seedlings” (Pest Manag Sci, 2009)",
  "key": {"[1]": {"system": "Secale cereale", "test": "Change in alkylresorcinol homologue composition in dry shoots of etiolated Secale cereale (rye) seedlings grown from compound-treated seeds at 22 +/-2 degC assessed as C23:0 content at 46 uM by GC/EI-MS analysis (reference value: 0.37 mg/kg dry weight)", "format": "functional"}, "[2]": {"system": "Secale cereale", "test": "Change in alkylresorcinol homologue composition in dry shoots of etiolated Secale cereale (rye) seedlings grown from compound-treated seeds at 15 +/-2 degC assessed as C19:1 content at 46 uM by GC/EI-MS analysis (reference value: 0.54 mg/kg dry weight)", "format": "functional"}, "[3]": {"system": "Secale cereale", "test": "Change in alkylresorcinol content in dry shoots of green Secale cereale (rye) seedlings grown from compound-treated seeds at 15 +/-2 degC at 46 uM by thin layer chromatography (reference value: 4.15 +/-0.02 mg/kg dry weight)", "format": "functional"}, "[4]": {"system": "Secale cereale", "test": "Change in alkylresorcinol content in dry shoots of etiolated Secale cereale (rye) seedlings grown from compound-treated seeds at 22 +/-2 degC at 46 uM by thin layer chromatography (reference value: 6.22 +/-0.09 mg/kg dry weight)", "format": "functional"}, "[5]": {"system": "Secale cereale", "test": "Change in alkylresorcinol homologue composition in dry shoots of etiolated Secale cereale (rye) seedlings grown from compound-treated seeds at 22 +/-2 degC assessed as C25:0 content at 46 uM by GC/EI-MS analysis (reference value: 0.08 mg/kg dry weight)", "format": "functional"}, "[6]": {"system": "Secale cereale", "test": "Change in alkylresorcinol homologue composition in dry shoots of green Secale cereale (rye) seedlings grown from compound-treated seeds at 29 +/-2 degC assessed as C19:0 content at 46 uM by GC/EI-MS analysis (reference value: 0.48 mg/kg dry weight)", "format": "functional"}, "[7]": {"system": "Secale cereale", "test": "Change in alkylresorcinol homologue composition in dry shoots of green Secale cereale (rye) seedlings grown from compound-treated seeds at 15 +/-2 degC assessed as C21:1 content at 46 uM by GC/EI-MS analysis", "format": "functional"}, "[8]": {"system": "Secale cereale", "test": "Change in alkylresorcinol homologue composition in dry shoots of green Secale cereale (rye) seedlings grown from compound-treated seeds at 29 +/-2 degC assessed as C19:1 content at 46 uM by GC/EI-MS analysis (Rvb =0.17 mg/kg dry weight)", "format": "functional"}, "[9]": {"system": "Secale cereale", "test": "Toxicity against green Secale cereale (rye) seedlings assessed as fresh biomass of seedling grown at 29 +/-2 degC at 46 uM measured at 5 days after compound-treated seed germination (reference value: 16.33 +/-0.24 g)", "format": "organism-based", "conditions": "in vivo, 120 h"}, "[10]": {"system": "Secale cereale", "test": "Change in alkylresorcinol homologue composition in dry shoots of etiolated Secale cereale (rye) seedlings grown from compound-treated seeds at 15 +/-2 degC assessed as C21:0 content at 46 uM by GC/EI-MS analysis (reference value: 0.78 mg/kg dry weight)", "format": "functional"}, "[11]": {"system": "Secale cereale", "test": "Change in alkylresorcinol homologue composition in dry shoots of etiolated Secale cereale (rye) seedlings grown from compound-treated seeds at 29 +/-2 degC assessed as C19:0 content at 46 uM by GC/EI-MS analysis (reference value: 1.06 mg/kg dry weight)", "format": "functional"}, "[12]": {"system": "Secale cereale", "test": "Change in alkylresorcinol homologue composition in dry shoots of green Secale cereale (rye) seedlings grown from compound-treated seeds at 29 +/-2 degC assessed as C21:1 content at 46 uM by GC/EI-MS analysis (reference value: 0.04 mg/kg dry weight)", "format": "functional"}, "[13]": {"system": "Secale cereale", "test": "Change in alkylresorcinol homologue composition in dry shoots of green Secale cereale (rye) seedlings grown from compound-treated seeds at 15 +/-2 degC assessed as C17:0 content at 46 uM by GC/EI-MS analysis (reference value: 1.46 mg/kg dry weight)", "format": "functional"}, "[14]": {"system": "Secale cereale", "test": "Change in alkylresorcinol homologue composition in dry shoots of green Secale cereale (rye) seedlings grown from compound-treated seeds at 22 +/-2 degC assessed as C19:1 content at 46 uM by GC/EI-MS analysis (reference value: 0.20 mg/kg dry weight)", "format": "functional"}, "[15]": {"system": "Secale cereale", "test": "Change in alkylresorcinol homologue composition in dry shoots of etiolated Secale cereale (rye) seedlings grown from compound-treated seeds at 22 +/-2 degC assessed as C21:0 content at 46 uM by GC/EI-MS analysis (reference value: 1.49 mg/kg dry weight)", "format": "functional"}, "[16]": {"system": "Secale cereale", "test": "Change in alkylresorcinol content in dry shoots of etiolated Secale cereale (rye) seedlings grown from compound-treated seeds at 29 +/-2 degC at 46 uM by thin layer chromatography (reference value: 3.03 +/-0.02 mg/kg dry weight)", "format": "functional"}, "[17]": {"system": "Secale cereale", "test": "Change in alkylresorcinol homologue composition in dry shoots of etiolated Secale cereale (rye) seedlings grown from compound-treated seeds at 22 +/-2 degC assessed as C17:0 content at 46 uM by GC/EI-MS analysis (reference value: 1.35 mg/kg dry weight)", "format": "functional"}, "[18]": {"system": "Secale cereale", "test": "Toxicity against etiolated Secale cereale (rye) seedlings assessed as fresh biomass of seedling grown at 15 +/-2 degC at 46 uM measured at 5 days after compound-treated seed germination (reference value: 7.63 +/-0.12 g)", "format": "organism-based", "conditions": "in vivo, 120 h"}, "[19]": {"system": "Secale cereale", "test": "Change in alkylresorcinol homologue composition in dry shoots of etiolated Secale cereale (rye) seedlings grown from compound-treated seeds at 15 +/-2 degC assessed as C19:0 content at 46 uM by GC/EI-MS analysis (reference value: 1.77 mg/kg dry weight)", "format": "functional"}, "[20]": {"system": "Secale cereale", "test": "Change in alkylresorcinol homologue composition in dry shoots of etiolated Secale cereale (rye) seedlings grown from compound-treated seeds at 15 +/-2 degC assessed as C15:0 content at 46 uM by GC/EI-MS analysis (reference value: 0.43 mg/kg dry weight)", "format": "functional"}, "[21]": {"system": "Secale cereale", "test": "Toxicity against green Secale cereale (rye) seedlings assessed as fresh biomass of seedling grown at 15 +/-2 degC at 46 uM measured at 5 days after compound-treated seed germination (reference value: 10.70 +/-0.28 g)", "format": "organism-based", "conditions": "in vivo, 120 h"}, "[22]": {"system": "Secale cereale", "test": "Change in alkylresorcinol homologue composition in dry shoots of etiolated Secale cereale (rye) seedlings grown from compound-treated seeds at 29 +/-2 degC assessed as C23:0 content at 46 uM by GC/EI-MS analysis (reference value: 0.18 mg/kg dry weight)", "format": "functional"}, "[23]": {"system": "Secale cereale", "test": "Change in alkylresorcinol homologue composition in dry shoots of etiolated Secale cereale (rye) seedlings grown from compound-treated seeds at 29 +/-2 degC assessed as C19:1 content at 46 uM by GC/EI-MS analysis (Rvb =0.09 mg/kg dry weight)", "format": "functional"}, "[24]": {"system": "Secale cereale", "test": "Change in alkylresorcinol homologue composition in dry shoots of etiolated Secale cereale (rye) seedlings grown from compound-treated seeds at 15 +/-2 degC assessed as C23:0 content at 46 uM by GC/EI-MS analysis (reference value: 0.33 mg/kg dry weight)", "format": "functional"}, "[25]": {"system": "Secale cereale", "test": "Change in alkylresorcinol homologue composition in dry shoots of etiolated Secale cereale (rye) seedlings grown from compound-treated seeds at 15 +/-2 degC assessed as C17:0 content at 46 uM by GC/EI-MS analysis (reference value: 3.25 mg/kg dry weight)", "format": "functional"}, "[26]": {"system": "Secale cereale", "test": "Change in alkylresorcinol homologue composition in dry shoots of etiolated Secale cereale (rye) seedlings grown from compound-treated seeds at 15 +/-2 degC assessed as C25:0 content at 46 uM by GC/EI-MS analysis (reference value: 0.11 mg/kg dry weight)", "format": "functional"}},
  "data": [
    {"smiles": "CCSC(=O)N(CC)C1CCCCC1", "note": "[CYCLOATE]", "values": [
      {"measurement": "Activity", "setting": "[1]", "value": 0.3, "unit": "mg/kg"},
      {"measurement": "Activity", "setting": "[2]", "value": 1.08, "unit": "mg/kg"},
      {"measurement": "Activity", "setting": "[3]", "value": 6.67, "unit": "mg/kg"},
      {"measurement": "Activity", "setting": "[4]", "value": 2.94, "unit": "mg/kg"},
      {"measurement": "Activity", "setting": "[5]", "value": 0.06, "unit": "mg/kg"},
      {"measurement": "Activity", "setting": "[6]", "value": 3.88, "unit": "mg/kg"},
      {"measurement": "Activity", "setting": "[7]", "value": 0.19, "unit": "mg/kg"},
      {"measurement": "Activity", "setting": "[8]", "value": 1.09, "unit": "mg/kg"},
      {"measurement": "Activity", "setting": "[9]", "value": 7.02, "unit": "g"},
      {"measurement": "Activity", "setting": "[10]", "value": 0.69, "unit": "mg/kg"},
      {"measurement": "Activity", "setting": "[11]", "value": 3.74, "unit": "mg/kg"},
      {"measurement": "Activity", "setting": "[12]", "value": 0.38, "unit": "mg/kg"},
      {"measurement": "Activity", "setting": "[13]", "value": 2.75, "unit": "mg/kg"},
      {"measurement": "Activity", "setting": "[14]", "value": 0.36, "unit": "mg/kg"},
      {"measurement": "Activity", "setting": "[15]", "value": 0.48, "unit": "mg/kg"},
      {"measurement": "Activity", "setting": "[16]", "value": 14.34, "unit": "mg/kg"},
      {"measurement": "Activity", "setting": "[17]", "value": 0.83, "unit": "mg/kg"},
      {"measurement": "Activity", "setting": "[18]", "value": 4.41, "unit": "g"},
      {"measurement": "Activity", "setting": "[19]", "value": 2.64, "unit": "mg/kg"},
      {"measurement": "Activity", "setting": "[20]", "value": 1.01, "unit": "mg/kg"},
      {"measurement": "Activity", "setting": "[21]", "value": 4.73, "unit": "g"},
      {"measurement": "Activity", "setting": "[22]", "value": 0.34, "unit": "mg/kg"},
      {"measurement": "Activity", "setting": "[23]", "value": 1.2, "unit": "mg/kg"},
      {"measurement": "Activity", "setting": "[24]", "value": 0.17, "unit": "mg/kg"},
      {"measurement": "Activity", "setting": "[25]", "value": 5.74, "unit": "mg/kg"},
      {"measurement": "Activity", "setting": "[26]", "value": 0.1, "unit": "mg/kg"}
    ]}
  ]
}
